Assay results from patent publication US9587005B2 (priority 2010, dated 2017).
Like-named read-outs stand apart in the source and are kept apart here. *1 amine or outer side, *2 acyl side, *3 side chain or, on linkers, in order; H or OH if unused. Where a SMILES comes first, the peptide text is derived from it. Where no end group is shown, it is not given here. Side-chain parts run from the residue outwards. [ ]: non-standard residue; d: D form. The star is where a group is joined. Phe(4-NH2) = Nc1ccc(C[C@H](N)C(=O)O)cc1; γGlu = O=C(O)[C@H](CCC(=O)[*:2])N[*:1]; Palmitoyl = CCCCCCCCCCCCCCCC(=O)*; Aib = CC(C)(N)C(=O)O

Key:
Assay type in all cases: cell-based
[1] = molecular target: T1, GLP-1 receptor (Homo sapiens, UniProt P43220); experiment: cAMP induction, firefly luciferase reporter assay in HEK293 cells co-transfected with GLP-1 receptor
T1 construct: expressed in transfected cells; host or cells: HEK293
Description: (§1) This example describes an exemplary method of testing the biological activity of the peptides of the present disclosures, which method involves assaying cAMP synthesis.

[2] = molecular target: T2, GIP receptor (Homo sapiens, UniProt P48546); experiment: cAMP induction, firefly luciferase reporter assay in HEK293 cells co-transfected with GIP receptor
T2 sequence (P48546 22-466): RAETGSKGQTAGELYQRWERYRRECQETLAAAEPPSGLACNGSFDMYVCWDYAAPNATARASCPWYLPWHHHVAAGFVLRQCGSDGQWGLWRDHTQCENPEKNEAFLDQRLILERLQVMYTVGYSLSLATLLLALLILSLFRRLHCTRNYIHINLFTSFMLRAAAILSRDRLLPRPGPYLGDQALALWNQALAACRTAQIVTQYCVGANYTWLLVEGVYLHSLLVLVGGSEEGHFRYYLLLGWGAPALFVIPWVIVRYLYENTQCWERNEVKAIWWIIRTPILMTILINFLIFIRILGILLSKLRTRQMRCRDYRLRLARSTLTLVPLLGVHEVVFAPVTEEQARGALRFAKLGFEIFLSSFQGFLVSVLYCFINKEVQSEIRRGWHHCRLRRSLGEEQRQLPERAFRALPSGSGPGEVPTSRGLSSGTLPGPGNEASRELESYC

[3] = molecular target: T3, glucagon receptor (Homo sapiens, UniProt P47871); experiment: cAMP induction, firefly luciferase reporter assay in HEK293 cells co-transfected with glucagon receptor
T3 construct: expressed in transfected cells; host or cells: HEK293
Description: as §1

[4] = EC50 (nM) at GLP-1 Receptor, Table 9, Example 15
[5] = EC50 (nM) at GIP Receptor, Table 9, Example 15
[6] = EC50 (nM) at GLP-1 Receptor, Table 4, Example 9, composite of multiple different activity assays
[7] = EC50 (nM) at Glucagon Receptor, Table 4, Example 9, composite of multiple different activity assays

T1 sequence (P43220 24-463): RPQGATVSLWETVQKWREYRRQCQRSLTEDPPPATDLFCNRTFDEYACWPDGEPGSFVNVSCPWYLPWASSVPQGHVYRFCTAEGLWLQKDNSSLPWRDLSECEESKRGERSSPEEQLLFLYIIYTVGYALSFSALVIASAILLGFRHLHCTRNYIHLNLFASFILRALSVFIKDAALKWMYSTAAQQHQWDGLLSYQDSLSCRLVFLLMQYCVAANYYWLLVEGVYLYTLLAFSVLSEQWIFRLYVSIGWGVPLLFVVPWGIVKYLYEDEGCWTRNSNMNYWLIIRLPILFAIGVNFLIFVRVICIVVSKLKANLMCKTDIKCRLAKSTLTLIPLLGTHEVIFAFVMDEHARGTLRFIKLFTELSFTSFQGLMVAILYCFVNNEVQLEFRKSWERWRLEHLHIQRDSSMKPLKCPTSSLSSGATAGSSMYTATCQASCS
T3 sequence (P47871 26-477): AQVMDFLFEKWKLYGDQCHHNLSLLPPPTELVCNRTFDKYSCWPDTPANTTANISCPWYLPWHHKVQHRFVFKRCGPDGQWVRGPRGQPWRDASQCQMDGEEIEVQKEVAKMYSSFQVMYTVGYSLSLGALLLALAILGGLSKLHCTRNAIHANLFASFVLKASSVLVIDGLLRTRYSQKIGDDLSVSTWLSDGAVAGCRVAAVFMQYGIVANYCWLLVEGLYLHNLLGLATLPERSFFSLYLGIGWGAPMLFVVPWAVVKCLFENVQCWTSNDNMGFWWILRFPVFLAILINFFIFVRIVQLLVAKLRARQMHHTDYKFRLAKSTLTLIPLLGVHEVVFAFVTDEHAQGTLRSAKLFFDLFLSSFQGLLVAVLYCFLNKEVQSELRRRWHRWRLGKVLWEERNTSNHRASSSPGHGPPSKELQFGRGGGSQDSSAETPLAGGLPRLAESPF

CCCCCCCCCCCCCCCC(=O)N[C@@H](CCC(=O)N[C@@H](CCC(=O)Nc1ccc(C[C@H](NC(=O)[C@H](CC(=O)O)NC(=O)[C@H](CO)NC(=O)[C@@H](NC(=O)[C@H](Cc2ccccc2)NC(=O)[C@@H](NC(=O)CNC(=O)[C@H](CCC(=O)O)NC(=O)C(C)(C)NC(=O)[C@@H](N)Cc2ccc(O)cc2)[C@@H](C)O)[C@@H](C)O)C(=O)N[C@@H](CO)C(=O)N[C@H](C(=O)N[C@@H](Cc2ccc(O)cc2)C(=O)N[C@@H](CC(C)C)C(=O)N[C@@H](CC(=O)O)C(=O)N[C@@H](CCCCN)C(=O)N[C@@H](CCC(N)=O)C(=O)N[C@@H](C)C(=O)N[C@@H](C)C(=O)NC(C)(C)C(=O)N[C@@H](CCC(=O)O)C(=O)N[C@@H](Cc2ccccc2)C(=O)N[C@H](C(=O)N[C@@H](CC(N)=O)C(=O)N[C@@H](Cc2c[nH]c3ccccc23)C(=O)N[C@@H](CC(C)C)C(=O)N[C@@H](CC(C)C)C(=O)N[C@@H](C)C(=O)NCC(=O)NCC(=O)N2CCC[C@H]2C(=O)N[C@@H](CO)C(=O)N[C@@H](CO)C(=O)NCC(=O)N[C@@H](C)C(=O)N2CCC[C@H]2C(=O)N2CCC[C@H]2C(=O)N2CCC[C@H]2C(=O)N[C@@H](CO)C(N)=O)C(C)C)[C@@H](C)CC)cc1)C(=O)O)C(=O)O [SEQ ID NO: 143] (H-Y[Aib]EGTFTSD[Phe(4-NH2)]([γGlu-γGlu-Palmitoyl])SIYLDKQAA[Aib]EFVNWLLAGGPSSGAPPPS-NH2; N-terminus assumed)
EC50 [1, 4]: 0.002 nM
EC50 [2, 5]: 0.003 nM

H[Aib]QGTFTSDYSKYLDERAAQDFVQWLLDAGPSSGAPPPSK([γGlu-γGlu-Palmitoyl])G-NH2 [SEQ ID NO: 204]
EC50 ([1]; EC50 (nM) at GLP-1 receptor, Table 16, Example 24): 0.001 nM
EC50 ([3]; EC50 (nM) at glucagon receptor, Table 16, Example 24): 0.003 nM

CCCCCCCCCCCCCCCC(=O)N[C@@H](CCC(=O)NCCCC[C@H](NC(=O)[C@H](CC(=O)O)NC(=O)[C@H](CO)NC(=O)[C@@H](NC(=O)[C@H](Cc1ccccc1)NC(=O)[C@@H](NC(=O)CNC(=O)[C@H](CCC(N)=O)NC(=O)[C@@H](CO)NC(=O)C(C)(C)c1c[nH]cn1)[C@@H](C)O)[C@@H](C)O)C(=O)N[C@@H](CO)C(=O)N[C@@H](CCCCN)C(=O)N[C@@H](Cc1ccc(O)cc1)C(=O)N[C@@H](CC(C)C)C(=O)N[C@@H](CC(=O)O)C(=O)N[C@@H](CCC(=O)O)C(=O)N[C@@H](CCCNC(=N)N)C(=O)N[C@@H](C)C(=O)N[C@@H](C)C(=O)N[C@@H](CCC(N)=O)C(=O)N[C@@H](CC(=O)O)C(=O)N[C@@H](Cc1ccccc1)C(=O)N[C@H](C(=O)N[C@@H](CCC(N)=O)C(=O)N[C@@H](Cc1c[nH]c2ccccc12)C(=O)N[C@@H](CC(C)C)C(=O)N[C@@H](CC(C)C)C(=O)N[C@@H](CC(=O)O)C(=O)N[C@H](C(N)=O)[C@@H](C)O)C(C)C)C(=O)O [compound 32]
EC50 [1]: 0.003 nM
EC50 ([3]; Table 4, Example 9, composite of multiple different activity assays): 0.004 nM

CCCCCCCCCCCCCCCC(=O)N[C@@H](CCC(=O)NCCCC[C@H](NC(=O)[C@H](CC(=O)O)NC(=O)[C@H](CO)NC(=O)[C@@H](NC(=O)[C@H](Cc1ccccc1)NC(=O)[C@@H](NC(=O)CNC(=O)[C@H](CCC(N)=O)NC(=O)[C@@H](CO)NC(=O)[C@@H](N)Cc1c[nH]cn1)[C@@H](C)O)[C@@H](C)O)C(=O)N[C@@H](CO)C(=O)N[C@@H](CCCCN)C(=O)N[C@@H](Cc1ccc(O)cc1)C(=O)N[C@@H](CC(C)C)C(=O)N[C@@H](CC(=O)O)C(=O)N[C@@H](CCC(=O)O)C(=O)N[C@@H](CCCNC(=N)N)C(=O)N[C@@H](CCCNC(=N)N)C(=O)N[C@@H](C)C(=O)NC(C)(C)C(=O)N[C@@H](CCC(=O)O)C(=O)N[C@@H](Cc1ccccc1)C(=O)N[C@H](C(=O)N[C@@H](CCC(N)=O)C(=O)N[C@@H](Cc1c[nH]c2ccccc12)C(=O)N[C@@H](CC(C)C)C(=O)N[C@@H](CC(C)C)C(=O)N[C@@H](CC(=O)O)C(=O)N[C@H](C(N)=O)[C@@H](C)O)C(C)C)C(=O)O [compound 30] (H-H[dS]QGTFTSDK([γGlu-Palmitoyl])SKYLDERRA[Aib]EFVQWLLDT-NH2; N-terminus assumed)
EC50 [1, 6]: 0.0031 nM
EC50 [3, 7]: 0.008 nM

H[Aib]EGTFTSDYSKYLDERAAQDFVQWLLDGGPSSGAPPPSK([γGlu-γGlu-Palmitoyl])G-NH2 [SEQ ID NO: 171]
EC50 ([1]; EC50 (nM) at GLP-1 receptor, Table 15, Example 23): 0.005 nM
EC50 ([2]; EC50 (nM) at GIP receptor, Table 15, Example 23): 0.038 nM

CCCCCCCCCCCCCCCC(=O)N[C@@H](CCC(=O)NCCCC[C@H](NC(=O)[C@H](CC(=O)O)NC(=O)[C@H](CO)NC(=O)[C@@H](NC(=O)[C@H](Cc1ccccc1)NC(=O)[C@@H](NC(=O)CNC(=O)[C@H](CCC(N)=O)NC(=O)C(C)(C)NC(=O)[C@@H](N)Cc1cnc[nH]1)[C@@H](C)O)[C@@H](C)O)C(=O)N[C@@H](CO)C(=O)N[C@@H](CCCCN)C(=O)N[C@@H](Cc1ccc(O)cc1)C(=O)N[C@@H](CC(C)C)C(=O)N[C@@H](CC(=O)O)C(=O)N[C@@H](CCC(=O)O)C(=O)N[C@@H](CCCNC(=N)N)C(=O)N[C@@H](C)C(=O)N[C@@H](C)C(=O)N[C@@H](CCC(N)=O)C(=O)N[C@@H](CC(=O)O)C(=O)N[C@@H](Cc1ccccc1)C(=O)N[C@H](C(=O)N[C@@H](CCC(N)=O)C(=O)N[C@@H](Cc1c[nH]c2ccccc12)C(=O)N[C@@H](CC(C)C)C(=O)N[C@@H](CC(C)C)C(=O)N[C@@H](CC(=O)O)C(=O)NCC(=O)N[C@@H](CCCNC(=N)N)C(=O)NCC(N)=O)C(C)C)C(=O)O [compound 29]
EC50 [1, 6]: 0.003 nM
EC50 [3, 7]: 0.007 nM

CCCCCCCCCCCCCCCCCCC(CC(=O)NCCCC[C@H](NC(=O)[C@H](CO)NC(=O)[C@@H]1CCCN1C(=O)[C@@H]1CCCN1C(=O)[C@@H]1CCCN1C(=O)[C@H](C)NC(=O)CNC(=O)[C@H](CO)NC(=O)[C@H](CO)NC(=O)[C@@H]1CCCN1C(=O)CNC(=O)CNC(=O)[C@H](C)NC(=O)[C@H](CC(C)C)NC(=O)[C@H](CC(C)C)NC(=O)[C@H](Cc1c[nH]c2ccccc12)NC(=O)[C@H](CC(N)=O)NC(=O)[C@@H](NC(=O)[C@H](Cc1ccccc1)NC(=O)[C@H](CCC(=O)O)NC(=O)C(C)(C)NC(=O)[C@H](C)NC(=O)[C@H](C)NC(=O)[C@H](CCC(N)=O)NC(=O)[C@H](CCCCN)NC(=O)[C@H](CC(=O)O)NC(=O)[C@H](CC(C)C)NC(=O)[C@H](Cc1ccc(O)cc1)NC(=O)[C@@H](NC(=O)[C@H](CO)NC(=O)[C@H](Cc1ccc(O)cc1)NC(=O)[C@H](CC(=O)O)NC(=O)[C@H](CO)NC(=O)[C@@H](NC(=O)[C@H](Cc1ccccc1)NC(=O)[C@@H](NC(=O)CNC(=O)[C@H](CCC(=O)O)NC(=O)C(C)(C)NC(=O)[C@@H](N)Cc1ccc(O)cc1)[C@@H](C)O)[C@@H](C)O)[C@@H](C)CC)C(C)C)C(=O)NCC(N)=O)C(=O)O (stereo partly drawn) [SEQ ID NO: 142]
EC50 [1, 4]: 0.004 nM
EC50 [2, 5]: 0.001 nM

CCCCCCCCCCCCCCCCC(CC(=O)NCCCC[C@H](NC(=O)[C@H](CO)NC(=O)[C@@H]1CCCN1C(=O)[C@@H]1CCCN1C(=O)[C@@H]1CCCN1C(=O)[C@H](C)NC(=O)CNC(=O)[C@H](CO)NC(=O)[C@H](CO)NC(=O)[C@@H]1CCCN1C(=O)CNC(=O)CNC(=O)[C@H](C)NC(=O)[C@H](CC(C)C)NC(=O)[C@H](CC(C)C)NC(=O)[C@H](Cc1c[nH]c2ccccc12)NC(=O)[C@H](CC(N)=O)NC(=O)[C@@H](NC(=O)[C@H](Cc1ccccc1)NC(=O)[C@H](CCC(=O)O)NC(=O)C(C)(C)NC(=O)[C@H](C)NC(=O)[C@H](C)NC(=O)[C@H](CCC(N)=O)NC(=O)[C@H](CCCCN)NC(=O)[C@H](CC(=O)O)NC(=O)[C@H](CC(C)C)NC(=O)[C@H](Cc1ccc(O)cc1)NC(=O)[C@@H](NC(=O)[C@H](CO)NC(=O)[C@H](Cc1ccc(O)cc1)NC(=O)[C@H](CC(=O)O)NC(=O)[C@H](CO)NC(=O)[C@@H](NC(=O)[C@H](Cc1ccccc1)NC(=O)[C@@H](NC(=O)CNC(=O)[C@H](CCC(=O)O)NC(=O)C(C)(C)NC(=O)[C@@H](N)Cc1ccc(O)cc1)[C@@H](C)O)[C@@H](C)O)[C@@H](C)CC)C(C)C)C(=O)NCC(N)=O)C(=O)O (stereo partly drawn) [SEQ ID NO: 140]
EC50 [1, 4]: 0.001 nM
EC50 [2, 5]: 0.001 nM

CC[C@H](C)[C@H](NC(=O)[C@H](CO)NC(=O)[C@H](Cc1ccc(O)cc1)NC(=O)[C@H](CC(=O)O)NC(=O)[C@H](CO)NC(=O)[C@@H](NC(=O)[C@H](Cc1ccccc1)NC(=O)[C@@H](NC(=O)CNC(=O)[C@H](CCC(N)=O)NC(=O)[C@@H](CO)NC(=O)[C@@H](N)Cc1c[nH]cn1)[C@@H](C)O)[C@@H](C)O)C(=O)N[C@@H](Cc1ccc(O)cc1)C(=O)N[C@@H](CC(C)C)C(=O)N[C@@H](CC(=O)O)C(=O)N[C@@H](CCCCN)C(=O)N[C@@H](CCC(N)=O)C(=O)N[C@@H](C)C(=O)N[C@@H](C)C(=O)NC(C)(C)C(=O)N[C@@H](CCC(=O)O)C(=O)N[C@@H](Cc1ccccc1)C(=O)N[C@H](C(=O)N[C@@H](CC(N)=O)C(=O)N[C@@H](Cc1c[nH]c2ccccc12)C(=O)N[C@@H](CC(C)C)C(=O)N[C@@H](CC(C)C)C(=O)N[C@@H](C)C(=O)NCC(=O)NCC(=O)N1CCC[C@H]1C(=O)N[C@@H](CO)C(=O)N[C@@H](CO)C(=O)NCC(=O)N[C@@H](C)C(=O)N1CCC[C@H]1C(=O)N1CCC[C@H]1C(=O)N1CCC[C@H]1C(=O)N[C@@H](CO)C(=O)N[C@@H](CS)C(N)=O)C(C)C [compound 48] (H-H[dS]QGTFTSDYSIYLDKQAA[Aib]EFVNWLLAGGPSSGAPPPSC-NH2; N-terminus assumed)
EC50 ([1]; EC50 (nM) at GLP-1 Receptor, Table 6, Example 12): 0.01 nM
EC50 ([2]; EC50 (nM) at GIP Receptor, Table 6, Example 12): 0.433 nM
